For one assay, the target named is PD-1/PD-L1 (Homo sapiens, UniProt Q9NZQ7). Description: PD-1/PD-L1 biochemical protein-protein interaction assay (ALPHA). The class given is binding. Particulars: 0.3 nM His tagged PD-L1, 2.5 nM biotinylated Fc-PD-1, 60 minutes at 25° C., read-out: IC50 PD-L1-PD-1 Alpha IC50-mono PD-L1-fcP-D1. The method, boiled down: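 Bead proximity read-out: compound-driven loss of ALPHA signal between anti-His acceptor and streptavidin donor beads (20 μg/mL acceptor). Proteins: 0.3 nM His-PD-L1, 2.5 nM biotin-Fc-PD-1, final. 60 min, 25° C, Hepes pH 7.4 buffer. IC50 via four-parameter dose-response fit.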

Assay [1] concerns the target T1, interaction between the recombinant extracellular domain (ECD) of PD-1 and native cell-bound PD-L1 (Homo sapiens, UniProt Q9NZQ7).
T1 construct: expressed in transfected cells
Put plainly: CHO/PD-L1 cell capture assay. Particulars: CHO cells overexpressing PD-L1, pre-incubated 1 hr with compound, captured on biotinylated Fc-PD-1 coated plates, 75 min at room temperature. The class given is cell-based. The method, boiled down: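 EC50 values came from four-parameter fits of counts of Draq5-stained CHO-PD-L1 cells retained on plate-bound biotinylated Fc-PD-1 ECD, enumerated by high-content imaging. Cells in PBS pH 7.4 with EDTA and 2% BSA had 1 hr compound pre-incubation, then 75 min capture at room temperature.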

The target in another assay is T2, PD-1/PD-L1 interaction (Homo sapiens, UniProt Q9NZQ7).
T2 construct: expressed in transfected cells; host or cells: CHO cells (aAPC-PD-L1) co-cultured with Jurkat cells overexpressing PD-1 and an NFAT-luciferase reporter
Put plainly: PD-1/PD-L1 NFAT reporter co-culture assay. The class given is cell-based. Particulars: Jurkat PD-1 NFAT-luciferase cells co-cultured with aAPC-PD-L1 CHO cells, 6 hrs at 37° C.; read-out: EC50 NFAT Luciferase. The method, boiled down: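 Restoration of TCR-driven NFAT luciferase signal: 6 h, 37 °C co-culture of PD-1 Jurkat reporter cells (pre-mixed with compound) on overnight-seeded PD-L1/anti-CD3 CHO monolayer. ONE-Glo luminescence; dose-response fitted to four-parameter equation for EC50.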

Results on twelve molecules are retold here after patent publication US12590062B2, “PD-1/PD-L1 inhibitors” (Gilead Sciences, Inc., priority 2017, dated 2026).

Chain of PD-1/PD-L1 (Q9NZQ7 19-238 limits assumed): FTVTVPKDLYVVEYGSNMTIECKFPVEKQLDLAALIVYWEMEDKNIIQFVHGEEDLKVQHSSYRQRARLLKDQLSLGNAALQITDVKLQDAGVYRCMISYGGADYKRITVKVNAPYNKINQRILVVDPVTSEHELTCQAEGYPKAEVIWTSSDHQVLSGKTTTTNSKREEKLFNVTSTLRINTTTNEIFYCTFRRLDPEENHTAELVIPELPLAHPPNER
T1 sequence (Q9NZQ7 19-290): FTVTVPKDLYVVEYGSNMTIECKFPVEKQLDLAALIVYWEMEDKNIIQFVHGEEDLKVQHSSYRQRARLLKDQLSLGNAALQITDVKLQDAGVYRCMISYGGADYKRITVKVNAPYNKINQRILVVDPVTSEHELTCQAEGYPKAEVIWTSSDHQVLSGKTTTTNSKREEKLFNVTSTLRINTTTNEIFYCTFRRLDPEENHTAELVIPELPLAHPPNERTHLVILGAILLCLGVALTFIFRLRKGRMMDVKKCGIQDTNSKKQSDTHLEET
T2 sequence (Q9NZQ7 19-290): as above

Broadly, the IC50 is the concentration needed to halve the response being measured. The term EC50 denotes the concentration at which the effect is half-maximal. For `COc1nc(OCc2cccc(-c3cccc(COc4nc(OC)c(CNC[C@@H](O)CC(=O)O)cc4Br)c3C)c2C)c(Br)cc1CNC[C@@H](O)CC(=O)O` [Example 113, (3S,3′S)-4,4′-((((((2,2′-dimethyl-[1,1′-biphenyl]-3,3′-diyl)bis(methylene))bis(oxy))bis(5-bromo-2-methoxypyridine-6,3-diyl))bis(methylene))bis(azanediyl))bis(3-hydroxybutanoic acid)], the half-inhibitory concentration (IC50) on PD-1/PD-L1 is 0.6 nM. Also, the figures for the EC50 (in assay [1]; on PD-1/PD-L1 interaction) were 148 nM and 193 nM, respectively.
Regarding `COc1nc(OCc2cccc(-c3cccc(COc4nc(OC)c(CNC[C@H](O)CC(=O)O)cc4Br)c3C)c2C)c(Br)cc1CNC[C@H](O)CC(=O)O` [Example 114, (3R,3′R)-4,4′-((((((2,2′-dimethyl-[1,1′-biphenyl]-3,3′-diyl)bis(methylene))bis(oxy))bis(5-bromo-2-methoxypyridine-6,3-diyl))bis(methylene))bis(azanediyl))bis(3-hydroxybutanoic acid)], the IC50 at PD-1/PD-L1 was determined as 0.5 nM. In addition, the EC50 worked out at 140 nM in assay [1] and 186 nM at PD-1/PD-L1 interaction.
In the same order, the values of `Cc1c(COc2nc(OCc3cc(C#N)cc(C#N)c3)c(CNC[C@@H](O)CC(=O)O)cc2Br)cccc1-c1cccc(COc2nc(OCc3cc(C#N)cc(C#N)c3)c(CNC[C@@H](O)CC(=O)O)cc2Br)c1C` [Example 121, (3S,3′S)-4,4′-((((((2,2′-dimethyl-[1,1′-biphenyl]-3,3′-diyl)bis(methylene))bis(oxy))bis(5-bromo-2-((3,5-dicyanobenzyl)oxy)pyridine-6,3-diyl))bis(methylene))bis(azanediyl))bis(3-hydroxybutanoic acid)] are 1.4 nM, 176 nM and 74 nM.
In the same order, the values of `Cc1c(COc2nc(OCc3cncnc3)c(CNC[C@@H](O)CC(=O)O)cc2Br)cccc1-c1cccc(COc2nc(OCc3cncnc3)c(CNC[C@@H](O)CC(=O)O)cc2Br)c1C` [Example 126, (3S,3′S)-4,4′-((((((2,2′-dimethyl-[1,1′-biphenyl]-3,3′-diyl)bis(methylene))bis(oxy))bis(5-bromo-2-(pyrimidin-5-ylmethoxy)pyridine-6,3-diyl))bis(methylene))bis(azanediyl))bis(3-hydroxybutanoic acid)] are 0.1 nM, 180 nM and 327 nM.
With `CNC(=O)COc1nc(OCc2cccc(-c3cccc(COc4nc(OCC(=O)NC)c(CNC[C@@H](O)CC(=O)O)cc4Br)c3C)c2C)c(Br)cc1CNC[C@@H](O)CC(=O)O` [Example 147, (3S,3′S)-4,4′-((((((2,2′-dimethyl-[1,1′-biphenyl]-3,3′-diyl)bis(methylene))bis(oxy))bis(5-bromo-2-(2-(methylamino)-2-oxoethoxy)pyridine-6,3-diyl))bis(methylene))bis(azanediyl))bis(3-hydroxybutanoic acid)], on PD-1/PD-L1, the IC50 came out at 0.3 nM. In addition, the EC50 was 117 nM in assay [1] and 1200 nM at PD-1/PD-L1 interaction.
In the same order, the values of `Cc1c(COc2nc(OCC(N)=O)c(CNC[C@@H](O)CC(=O)O)cc2Br)cccc1-c1cccc(COc2nc(OCC(N)=O)c(CNC[C@@H](O)CC(=O)O)cc2Br)c1C` [Example 155, (3S,3′S)-4,4′-((((((2,2′-dimethyl-[1,1′-biphenyl]-3,3′-diyl)bis(methylene))bis(oxy))bis(2-(2-amino-2-oxoethoxy)-5-bromopyridine-6,3-diyl))bis(methylene))bis(azanediyl))bis(3-hydroxybutanoic acid)] are 0.2 nM, 211 nM and 6490 nM.
Turning to `Cc1c(COc2ccc(CNC[C@@H](O)CC(=O)O)c(OCc3cncnc3)n2)cccc1-c1cccc(COc2ccc(CNC[C@@H](O)CC(=O)O)c(OCc3cncnc3)n2)c1C` [Example 157, (3S,3′S)-4,4′-((((((2,2′-dimethyl-[1,1′-biphenyl]-3,3′-diyl)bis(methylene))bis(oxy))bis(2-(pyrimidin-5-ylmethoxy)pyridine-6,3-diyl))bis(methylene))bis(azanediyl))bis(3-hydroxybutanoic acid)], the IC50 on PD-1/PD-L1 turned out to be 0.2 nM. The EC50 in assay [1] worked out at 81.1 nM; at PD-1/PD-L1 interaction, 465 nM.
In the same order, the values of `Cc1c(COc2nc(OCCN3CCOCC3)c(CNC[C@@H](O)CC(=O)O)cc2Cl)cccc1-c1cccc(COc2nc(OCCN3CCOCC3)c(CNC[C@@H](O)CC(=O)O)cc2Cl)c1C` [Example 159, (3S,3′S)-4,4′-((((((2,2′-dimethyl-[1,1′-biphenyl]-3,3′-diyl)bis(methylene))bis(oxy))bis(5-chloro-2-(2-morpholinoethoxy)pyridine-6,3-diyl))bis(methylene))bis(azanediyl))bis(3-hydroxybutanoic acid)] are 0.5 nM, 190 nM and 538 nM.
For the molecule `COc1nc(OCc2cccc(-c3cccc(COc4nc(OC)c(CNC[C@@H](O)CC(=O)O)cc4C(F)(F)F)c3C)c2C)c(C(F)(F)F)cc1CNC[C@@H](O)CC(=O)O` [Example 160, (3S,3′S)-4,4′-((((((2,2′-dimethyl-[1,1′-biphenyl]-3,3′-diyl)bis(methylene))bis(oxy))bis(2-methoxy-5-(trifluoromethyl)pyridine-6,3-diyl))bis(methylene))bis(azanediyl))bis(3-hydroxybutanoic acid)], at PD-1/PD-L1, the IC50 came to 0.6 nM. The EC50 in assay [1] was 191 nM; on PD-1/PD-L1 interaction, 139 nM.
In the same order, the values of `Cc1c(COc2cc(OCc3cncc(C#N)c3)c(CNC[C@@H](O)CC(N)=O)cc2Cl)cccc1-c1cccc(COc2cc(OCc3cncc(C#N)c3)c(CNC[C@@H](O)CC(N)=O)cc2Cl)c1C` [Example 165, (3S,3′S)-4,4′-((((((2,2′-dimethyl-[1,1′-biphenyl]-3,3′-diyl)bis(methylene))bis(oxy))bis(5-chloro-2-((5-cyanopyridin-3-yl)methoxy)-4,1-phenylene))bis(methylene))bis(azanediyl))bis(3-hydroxybutanamide)] are 5.8 nM, 156 nM and 352 nM.
Consider `COc1nc(OCc2cccc(-c3cccc(COc4nc(OC)c(CNC[C@H](O)C(=O)O)cc4Cl)c3C)c2C)c(Cl)cc1CNC[C@H](O)C(=O)O` [Example 166, (2S,2′S)-3,3′-((((((2,2′-dimethyl-[1,1′-biphenyl]-3,3′-diyl)bis(methylene))bis(oxy))bis(5-chloro-2-methoxypyridine-6,3-diyl))bis(methylene))bis(azanediyl))bis(2-hydroxypropanoic acid)], for which the IC50 at PD-1/PD-L1 was 2 nM. The values for the EC50 (in assay [1]; on PD-1/PD-L1 interaction) were 41.6 nM and 139 nM, respectively.
In the same order, the values of `COc1nc(OCc2cccc(-c3cccc(COc4cc(OCc5cncc(C#N)c5)c(CNC[C@@H](O)CC(=O)O)cc4Cl)c3C)c2C)ccc1CNC[C@@H](O)CC(=O)O` [Example 203, (S)-4-(((6-((3′-((4-((((S)-3-Carboxy-2-hydroxypropyl)amino)methyl)-2-chloro-5-((5-cyanopyridin-3-yl)methoxy)phenoxy)methyl)-2,2′-dimethyl-[1,1′-biphenyl]-3-yl)methoxy)-2-methoxypyridin-3-yl)methyl)amino)-3-hydroxybutanoic acid] are 1 nM, 317 nM and 696 nM.
